Reference: US6864286B2, “Inhibitors of the EGF-receptor tyrosine kinase and methods for their use” (Parker Hughes Institute, priority 1998, dated 2005)

How the values were obtained:
JAK3 = biological target: T1, JAK3 (Homo sapiens, UniProt P52333); experiment: Cell-free JAK3 immune complex kinase assay; format: biochemical; settings: for effect on enzymatic activity of JAK3: at concentrations as high as 350 μM
T1 construct: made in house; host or cells: Sf21 insect cells (baculovirus)
T1 sequence (P52333 1-1124): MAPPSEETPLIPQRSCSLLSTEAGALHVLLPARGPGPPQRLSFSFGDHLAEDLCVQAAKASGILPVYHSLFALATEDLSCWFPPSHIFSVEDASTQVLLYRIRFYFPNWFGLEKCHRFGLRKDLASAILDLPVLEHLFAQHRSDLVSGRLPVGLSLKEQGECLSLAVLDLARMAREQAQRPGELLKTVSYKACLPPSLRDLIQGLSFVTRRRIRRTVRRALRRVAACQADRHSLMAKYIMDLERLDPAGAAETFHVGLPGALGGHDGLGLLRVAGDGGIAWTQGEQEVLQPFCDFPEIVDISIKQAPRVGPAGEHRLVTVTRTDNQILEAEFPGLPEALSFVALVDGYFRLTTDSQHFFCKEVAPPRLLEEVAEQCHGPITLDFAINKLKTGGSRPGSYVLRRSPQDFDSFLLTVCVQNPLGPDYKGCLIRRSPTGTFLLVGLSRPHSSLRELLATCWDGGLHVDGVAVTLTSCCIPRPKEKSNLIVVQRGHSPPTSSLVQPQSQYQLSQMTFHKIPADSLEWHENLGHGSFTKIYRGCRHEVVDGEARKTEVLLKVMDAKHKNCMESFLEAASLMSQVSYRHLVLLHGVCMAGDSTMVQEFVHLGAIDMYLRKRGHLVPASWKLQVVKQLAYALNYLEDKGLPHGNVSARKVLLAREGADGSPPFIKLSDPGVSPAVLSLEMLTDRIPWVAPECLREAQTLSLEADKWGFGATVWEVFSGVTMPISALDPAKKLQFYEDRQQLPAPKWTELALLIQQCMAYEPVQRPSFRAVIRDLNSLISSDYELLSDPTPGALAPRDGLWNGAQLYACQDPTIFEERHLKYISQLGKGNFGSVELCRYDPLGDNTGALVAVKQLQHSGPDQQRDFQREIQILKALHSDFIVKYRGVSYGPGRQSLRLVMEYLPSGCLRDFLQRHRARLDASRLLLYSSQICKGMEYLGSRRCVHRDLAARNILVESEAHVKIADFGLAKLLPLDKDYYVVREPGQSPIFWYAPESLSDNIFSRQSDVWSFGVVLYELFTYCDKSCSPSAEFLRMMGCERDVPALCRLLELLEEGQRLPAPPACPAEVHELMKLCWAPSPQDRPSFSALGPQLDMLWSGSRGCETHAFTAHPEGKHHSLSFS
Description: Immunoprecipitations, immune-complex protein kinase assays, and immunoblotting using the ECL chemiluminescence detection system (Amersham Life Sciences) were conducted as described previously (Vassilev, A., et al. J. Biol. Chem. 1998, in press; Goodman, P. A., et al. J. Biol. Chem. 1998, 273, 17742; Mahajan, S., et al. Mol. Cell. Biol. 1995, 15, 5304; Uckun, F. M., et al. Science 1996, 22, 1096).

MDA-MB-361 cells = experiment: In vitro clonogenic assay, MDA-MB-361; format: cell-based, human; settings: 24 hour treatment; for inhibition at 0.1 µM / inhibition at 10 µM / inhibition at 100 µM: Homo sapiens
Description: In order to determine the cytotoxic activity of LFM and its analogs against breast cancer cells, cells in alpha-MEM supplemented with 10% (v/v) fetal calf serum were treated with various concentrations of the compounds for 24 hours at 37° C., washed twice in alpha-MEM, and then used in either MTT assays or in vitro invasion assays, as described hereinafter.
After treatment with LFM analogs, cells were resuspended in clonogenic medium consisting of alpha-MEM supplemented with 0.9% methylcellulose, 30% fetal bovine serum, and 50 μM 2-mercaptoethanol. Cells were plated in duplicate Petri dishes at 100,000 cells/mL/dish and cultured in a humidified 5% CO2 incubator for 7 days. Cancer cell colonies were enumerated on a grid using an inverted phase microscope of high optical resolution (Uckun F. M., et al. Clin. Cancer Res. 1998, 4, 901-912; and Kuo). Results were expressed as % inhibition of clonogenic cells at a particular concentration of the test agent using the formula: % Inhibition=(1-Mean # of colonies [Test]/Mean # of colonies [Control])×100. Furthermore, the dose survival curves were constructed using the percent control survival (=Mean # of colonies[Test]/Mean # of colonies [Control]×100) results for each drug concentration as the data points and the IC50 values were calculated. The IC50 values were determined using an Prism Version II Inplot program (Graphpad Software, Inc., San Diego, Calif.).

[1] = biological target: T2, EGFR tyrosine kinase in MDA-MB-231 cells (Homo sapiens, UniProt P00533); experiment: Cellular EGFR autophosphorylation, anti-phosphotyrosine Western blot; format: cell-based; settings: 24 hour exposure
T2 construct: anti-EGFR immunoprecipitates from lysates of MDA-MB-231 human breast cancer cells; endogenous in cells; host or cells: MDA-MB-231 (ATCC HTB-26)
Description: For EGFR immune complex kinase assays, 24-hours after treatment with leflunomide analogs, MDA-MB-231 breast cancer cells were stimulated with 20 ng/mL EGF for 5 minutes, lysed in 1% Nonidet-P-40 buffer, and cell lysates were immunoprecipitated with an anti-EGFR antibody reactive with the sequence Ala^351-Asp^364 of the human EGFR (Upstate Biotechnology Inc. [UBI] Catalog # 05-104) (Uckun, F. M., et al. Clin. Can. Res. 1998, 4, 901). EGFR immune complexes were examined for tyrosine phosphorylation by Western blot analysis, as described by Uckun, F. M., et al. Clin. Can. Res. 1998, 4, 901. All anti-phosphotyrosine Western blots were subjected to densitometric scanning using the automated AMBIS system (Automated Microbiology System, Inc., San Diego, Calif.) and for each time point a % inhibition value was determined by comparing the density ratios of the tyrosine phosphorylated EGFR protein bands to those of the baseline sample and using the formula: % Inhibition=100−100×[Density of tyrosine phosphorylated EGFR band]test sample/[Density of tyrosine phosphorylated EGFR band]baseline control sample. The IC50 values were determined using an Inplot program (Graphpad Software, Inc., San Diego, Calif.).
The effects of LFM and LFM analogs on the enzymatic activity of the EGFR tyrosine kinase in breast cancer cells were also examined. […]

T2 sequence (P00533 25-1210): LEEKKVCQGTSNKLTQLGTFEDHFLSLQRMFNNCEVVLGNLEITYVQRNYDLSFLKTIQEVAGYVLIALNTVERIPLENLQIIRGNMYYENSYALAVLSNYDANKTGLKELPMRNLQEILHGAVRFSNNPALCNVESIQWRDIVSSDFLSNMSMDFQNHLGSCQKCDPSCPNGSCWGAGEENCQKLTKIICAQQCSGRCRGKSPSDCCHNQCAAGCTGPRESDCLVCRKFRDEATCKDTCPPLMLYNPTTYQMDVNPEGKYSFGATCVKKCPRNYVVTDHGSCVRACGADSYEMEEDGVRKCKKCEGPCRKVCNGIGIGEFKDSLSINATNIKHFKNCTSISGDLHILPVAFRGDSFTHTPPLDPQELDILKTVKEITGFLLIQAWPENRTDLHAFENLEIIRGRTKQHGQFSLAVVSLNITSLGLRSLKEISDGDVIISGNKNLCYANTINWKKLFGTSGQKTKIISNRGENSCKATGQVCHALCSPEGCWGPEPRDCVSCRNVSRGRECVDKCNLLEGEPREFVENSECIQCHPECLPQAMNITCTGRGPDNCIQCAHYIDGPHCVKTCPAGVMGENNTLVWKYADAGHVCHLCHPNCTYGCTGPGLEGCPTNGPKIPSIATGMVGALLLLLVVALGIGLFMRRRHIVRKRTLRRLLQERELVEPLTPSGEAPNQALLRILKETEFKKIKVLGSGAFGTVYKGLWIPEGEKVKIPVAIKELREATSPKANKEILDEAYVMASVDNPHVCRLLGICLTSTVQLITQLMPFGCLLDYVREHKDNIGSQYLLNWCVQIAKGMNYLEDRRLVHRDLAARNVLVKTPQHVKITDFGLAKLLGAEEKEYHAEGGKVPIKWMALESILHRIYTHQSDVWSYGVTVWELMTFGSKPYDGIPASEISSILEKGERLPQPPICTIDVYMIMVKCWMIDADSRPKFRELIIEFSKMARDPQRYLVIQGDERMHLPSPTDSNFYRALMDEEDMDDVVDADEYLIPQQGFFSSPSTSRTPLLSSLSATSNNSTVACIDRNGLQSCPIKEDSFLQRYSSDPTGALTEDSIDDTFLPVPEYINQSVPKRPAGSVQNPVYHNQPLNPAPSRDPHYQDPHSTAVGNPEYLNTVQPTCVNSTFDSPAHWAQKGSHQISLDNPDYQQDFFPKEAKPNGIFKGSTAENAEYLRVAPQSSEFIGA

SMILES | effect on enzymatic activity of JAK3 (JAK3) | inhibition at 0.1 µM (MDA-MB-361 cells; MDA-MB-361, 0.1 μM) [%] | inhibition at 10 µM (MDA-MB-361 cells; MDA-MB-361, 10 μM) [%] | inhibition at 100 µM (MDA-MB-361 cells; MDA-MB-361, 100 μM) [%] | Tumor Cell Colonies/10^5 Cells (MDA-MB-361 cells; MDA-MB-361, 0.1 μM) | Tumor Cell Colonies/10^5 Cells (MDA-MB-361 cells; MDA-MB-361, 10 μM) | Tumor Cell Colonies/10^5 Cells (MDA-MB-361 cells; MDA-MB-361, 100 μM) | tyrosine phosphorylation of the EGFR after EGF stimulation [1] | IC50 (JAK3; JAK3, cell-free, read-out: Inhibition IC50) [µM]
CC(O)=C(C#N)C(=O)Nc1ccc(C(F)(F)F)cc1 [LFM, α-Cyano-β-hydroxy-β-methyl-N-[4-(trifluoromethyl)phenyl]-propenamide, reference compound] | did not affect the enzymatic activity | 27.3 | 51.5 | 82.3 | 803 | 535 | 196 | to a lesser extent | 
C/C(O)=C(\C#N)C(=O)Nc1ccc(OC(F)(F)F)cc1 [LFM-A12, α-Cyano-β-hydroxy-β-methyl-N-[4-(trifluoromethoxy)phenyl]-propenamide] | did not affect the enzymatic activity | 32.4 | 60.2 | 87.3 | 746 | 440 | 140 | decreased tyrosine phosphorylation of the EGFR | > 350
